Where two headings read alike, the source gives them in different places.
How the values were obtained:
[1] = target: T1, human muscarinic M1 receptors (Homo sapiens, UniProt P11229); test: Stimulation of inositol phosphate production in A9L cells, human M1 (IPOne TR-FRET); assay type: cell-based
T1 construct: host or cells: A9L cells
T1 sequence (P11229 1-460): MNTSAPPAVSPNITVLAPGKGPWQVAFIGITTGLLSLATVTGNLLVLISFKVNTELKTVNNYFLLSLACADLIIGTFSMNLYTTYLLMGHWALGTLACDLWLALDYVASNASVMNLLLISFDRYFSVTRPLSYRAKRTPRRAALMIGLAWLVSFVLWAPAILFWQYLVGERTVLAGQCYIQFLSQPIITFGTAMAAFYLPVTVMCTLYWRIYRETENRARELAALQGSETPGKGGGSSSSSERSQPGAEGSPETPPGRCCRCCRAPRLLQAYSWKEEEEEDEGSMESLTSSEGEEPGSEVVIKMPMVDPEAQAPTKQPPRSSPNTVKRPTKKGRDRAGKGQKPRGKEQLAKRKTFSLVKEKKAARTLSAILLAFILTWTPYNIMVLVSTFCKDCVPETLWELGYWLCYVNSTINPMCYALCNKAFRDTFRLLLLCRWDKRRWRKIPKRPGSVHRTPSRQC
Method: (§1) Muscarinic M1 and M3 agonist activity was evaluated by measuring the stimulation of inositol phosphate (IP) production in the presence of lithium chloride from A9L cells transfected with expression plasmids containing human muscarinic M1 and M3 receptors, respectively. The cell lines were a gift from Professor W Messer, and the methods were as described in Tejada F R et al. J. Med. Chem. 2006; 49: 7518-31 except that the assay was scaled down to run in 384 well plates, and IP was measured in the cell lysates using the non-isotopic IPOne TR-FRET assay (CIS-BIO, Inc).
(§2) Cells were grown to 90% confluence in 384 well hi-base plates (Greiner Bio-One), compounds were added at suitable concentrations in growth medium containing 10 mM LiCL, buffered with an extra 10 mM HEPES (pH7.4), and incubated for 60 minutes at 37° C. Cells were lysed and assayed for IP following the manufacturer's instructions.
(§3) The value for a full agonist is 100%, while partial agonists give values below 100%.

[2] = target: T2, human muscarinic M3 receptors (Homo sapiens, UniProt P20309); test: Stimulation of inositol phosphate production in A9L cells, human M3 (IPOne TR-FRET); assay type: cell-based
T2 construct: host or cells: A9L cells
Method: as §1, §2, §3

[3] = Immediate release capsules in healthy male volunteers: serum pharmacokinetics, metabolites, cholinergic side effects; assay type: in vivo, human
Method: A single 5 mg capsule or 5×0.2 mg capsules (1 mg total dose) were administered orally to healthy male volunteer human subjects with 125 ml of water. Six such subjects receiving the 5 mg dose, and a different 6 subjects received the 1 mg dose.
Subjects were monitored, among other things, for typical signs of muscarinic cholinergic action, such as increased salivation, lachrimation and diaphoresis. Venous blood samples were drawn at various intervals after dosing from each subject into standard tubes for bioanalytical and pharmacokinetic analysis. The blood was allowed to clot, and the serum separated, using common clinical laboratory techniques. Serum samples were stored at −20 deg C. until used for analysis.
MCD-386HCl, which exists in serum principally as the protonated form of MCD-386, was assayed in clinical serum samples as follows. 200 μL aliquots of serum samples were spiked with 50.0 μL of diluent for subject samples and QC samples and 50 μL of the appropriate intermediate standard solution for standards. Twenty five microliters (25.0 μL) of working internal standard stock solution and 40.0 μL of 10 N sodium hydroxide was then added and the samples were vortex mixed. Three milliliters (3.00 mL) of ethyl acetate was added followed by 5 minutes of vigorous vortexing and centrifugation. The top organic layer was transferred to a clean tube, evaporated to dryness, and the sample was reconstituted with 100 μL of diluent (0.1% formic acid). A 10 μL aliquot of this reconstituted sample was injected into Phenomenex Synergy 4μ POLAR-RP, 75×2.0 mm (P/N 00C-4336-B0) on a Waters Acuity HPLC LC system, and eluted using a gradient of from 12% to 90% acetonitrile containing 0.1% formic acid/0.1% formic acid in water. The eluant flow of the LC was injected by Turbo Ion Spray (positive ion) into a Sciex API 4000 (Applied Biosystems). The MS/MS transitions monitored were 181.1 m/z to 111.0 m/z for MCD-386HCl and 186.1 m/z to 111.1 m/z for the internal standard, D5-MCD-386HCl. The calibration curve was linear between 0.100 ng/mL and 50.0 ng/mL for MCD-386HCl. The lower limit of quantitation (LLOQ) was 0.100 ng MCD-386HCl per mL of serum. MCD-386HCl concentrations are expressed as free base.
The bioanalytical method for the extraction of metabolites from serum samples entailed adding 450 uL of a 90% acetonitrile+0.1% formic acid solution to 50 uL of the serum samples. The samples were vortexed and centrifuged at 16,000x g at 4° C. for 10 minutes. The supernatants were transferred to 3K molecular weight cut-off (MWCO) spin filters (Pall, Nanosep, #82031-346). Samples were filtered by centrifugation at 13,000×g at 4° C. for 20 minutes. The filtrates were transferred to a 96-well plate and sealed for LC/MS/MS analysis. The system used for this analysis was a Shimadzu Prominence HPLC system. […] The autosampler was maintained at 4° C. Injection volumes for all samples and standards were 40 uL. MRM methods for two possible metabolites were made. An API 3200 triple-quadrupole mass spectrometer with a Turbo V source (Applied Biosystems) was used, following commonly used procedures which would be readily set up by a person skilled in the art of LC-MS/MS. The counts of the characteristic parent and product ions of the free base metabolites were converted to concentration units by comparison with a standard calibration curve.
The bioanalytical results were analyzed using Win Nonlin software and common pharmacokinetic methods known to those skilled in the art.

[4] = test system: inositol phosphate signaling pathway; test: In vivo measurement of tissue inositol phosphate signaling pathway activation (hippocampus, salivary gland); conditions: rat, Compound 3 1 mg/kg
Method: Experimental compounds or drug substances were administered using standard techniques to Long Evans Hooded rats weighing 225 to 350 grams, and which had been pretreated with a subcutaneous injection of lithium chloride at a suitable dose between 3 and 10 mmoles per kg. At suitable times the animals were briefly anesthetized using 5% isoflurane and euthanized by decapitation. The brains and submaxillary salivary glands were rapidly dissected out, and the hippocampuses were dissected from the brains. The dissected tissues were homogenized in a suitable volume of ice-cold phosphate-buffered saline containing 10 mM lithium chloride, pH7.4, using a tissue homogenizer, and used immediately or frozen in aliquots at −80 degC for future use. The concentration of inositol-1-phosphate was determined in the homogenates using the IPOne TR-FRET assay (CisBio cat no 621PAPEB), following the manufacturer's instruction

Long Evans Hooded rats = test: In vivo measurement of salivation; design: species or system rat; conditions: Compound 3 0.3 mg/kg
Method: Suitable doses of test compounds or drug substances were administered using standard techniques to Long Evans Hooded rats weighing 225 to 350 grams, or CD-1 mice weighing 30 to 50 grams, which had been anesthetized using 2-3.5%% of isoflurane in oxygen. The animals were placed slightly head-down on an inclined, heated ramp. Rectal temperature was monitored using a thermocouple and the temperature of the heating pad was adjusted manually to maintain normal body temperature. Saliva was collected from the mouth by absorption onto pre-weighed slips of filter paper. The filter paper was changed periodically and the amount of saliva was measured by weighing the filter paper slips.

rats = test: Salivation after transdermal iontophoretic co-delivery of agonist and antagonist from one patch; assay type: in vivo, rat; conditions: anesthetized rats, device with 1 mg Compound 3 plus 0.01 mg antagonist
Method: Experimental compounds and drug substances were delivered transdermally in rats using iontophoresis as follows. The fur was shaved from the backs of Long Evans Hooded rats weighing 225 to 325 grams, using electric clippers. Experimental compounds and drug substances were formulated at suitable concentrations an aqueous mixture of the following composition:
The polyvinyl alcohol/water was heated to 95 degC until it became clear, then the other constituents were added and mixed well. The mixture was introduced into suitable molds containing a disc-shaped cavity 2.2 cm diameter and 2.2 mm deep. Molds may be fabricated using two glass sheets separated by a silicone rubber sheet with suitable sized cavities and filling ports cut-outs. The molds were subject to 3 freeze-thaw cycles at −80 degC and 20 degC until a firm cryogel was obtained. The gels were separated from the molds and trimmed into a circular shape. The gel was placed in a silicone rubber casing with one face in contact with a circular silver foil anodic electrode (22 mm dia/250 microns thick), and the assembly was placed on the shaved skin of the rat such that the other face was in contact with the skin on one side of the back of the rat. The rubber casing formed a seal over and around the gel/electrode assembly. […] This was placed on the other side of the shaved back of the rat, the edges of the gel discs being about 20 mm apart at their nearest point. A DC voltage was applied across the two patches from a constant-current DC power supply and the voltage adjusted to obtain the desired current, such that the skin of the animal completed the electrical circuit.
The devices were placed on shaved backs of anesthetized rats and salivation was measured.
The animals were placed slightly head-down on an inclined, heated ramp. Rectal temperature was monitored using a thermocouple and the temperature of the heating pad was adjusted manually to maintain normal body temperature. Saliva was collected from the mouth by absorption onto pre-weighed slips of filter paper. The filter paper was changed periodically and the amount of saliva was measured by weighing the filter paper slips.

[5] = potency class relative to carbachol

T2 sequence (P20309 whole entry): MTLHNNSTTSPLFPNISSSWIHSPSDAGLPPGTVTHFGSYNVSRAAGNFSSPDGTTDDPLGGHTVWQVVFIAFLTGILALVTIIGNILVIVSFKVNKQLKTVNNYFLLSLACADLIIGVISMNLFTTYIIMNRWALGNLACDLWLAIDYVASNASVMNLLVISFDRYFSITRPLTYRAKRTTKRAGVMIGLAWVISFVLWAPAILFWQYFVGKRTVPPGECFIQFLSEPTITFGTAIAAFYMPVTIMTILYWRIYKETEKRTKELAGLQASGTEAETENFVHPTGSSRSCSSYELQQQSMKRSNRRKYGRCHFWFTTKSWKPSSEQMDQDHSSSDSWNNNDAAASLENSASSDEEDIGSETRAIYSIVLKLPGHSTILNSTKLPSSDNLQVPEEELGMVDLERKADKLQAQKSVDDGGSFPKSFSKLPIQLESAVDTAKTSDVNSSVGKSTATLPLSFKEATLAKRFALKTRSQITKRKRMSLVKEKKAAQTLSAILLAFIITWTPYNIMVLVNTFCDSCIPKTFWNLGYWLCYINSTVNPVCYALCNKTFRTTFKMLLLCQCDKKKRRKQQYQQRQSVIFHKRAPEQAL

Cc1noc(C2CN3CCC2CC3)n1 (stereo not shown) [Compound 37, 3-methyl-5-(quinuclidin-3-yl)-1,2,4-oxadiazole, reference compound]
huM1/A9L ED50 relative to CCh [1]: ++ (key: ++: potency > 10x CCh; +: potency 2-10x CCh; +/−: potency 0.5-2x CCh; −: potency < 0.5-0.1x CCh; −−: potency < 0.1x CCh; inactive: potency too low to determine) | Potency and efficacy at M1 muscarinic receptors ([1]; Table 12): highly potent | Selectivity for M1 versus M3 receptors ([1]; huM1/A9L versus huM3/A9L): essentially non-selective between M1 and M3 receptors | huM3/A9L ED50 relative to CCh [2]: ++ (key: ++: potency > 10x CCh; +: potency 2-10x CCh; +/−: potency 0.5-2x CCh; −: potency < 0.5-0.1x CCh; −−: potency < 0.1x CCh; inactive: potency too low to determine) | PAMPA units (PAMPA test): 3.02

CCc1noc(C2CN=CNC2)n1 (stereo not shown) [MCD-386HCl, 5-(3-ethyl-1,2,4-oxadiazol-5-yl)-1,4,5,6-tetrahydropyrimidine]
Observable cholinergic side effects ([3]; 1 mg total dose cohort): none of the subjects in the 1 mg total dose cohort experienced any observable cholinergic side effects | Diaphoresis ([3]; 5 mg cohort): Two of these latter subjects experienced mild, transient diaphoresis that resolved within a short period, and two subjects experienced moderate diaphoresis | Hypersalivation ([3]; 5 mg cohort): One of the latter subjects also experienced mild hypersalivation | Observable cholinergic side effects ([3]; 5 mg cohort): two subjects experienced no observable side effects, and four subjects showed signs of muscarinic cholinergic activity | Main metabolite in serum ([3]; 5 mg dose cohort): identified in the serum samples of five out of six subjects

CNC(=C[N+](=O)[O-])NCCSCc1ccc(CN(C)C)o1 [Ranitidine]
PAMPA units: 0.26

C[N+]1(C)[C@@H]2C[C@@H](OC(=O)[C@H](CO)c3ccccc3)C[C@H]1[C@@H]1O[C@@H]12 [NMS, N-methylscopolamine]
Block of increase in salivary gland inositol phosphate caused by Compound 3 ([4]; antagonist 0.003 mg/kg): some breakthrough activation | Block of increase in salivary gland inositol phosphate caused by Compound 3 ([4]; antagonist 0.03 mg/kg to 0.01 mg/kg): nearly as effective as 0.1 mg/kg | Block of increase in salivary gland inositol phosphate caused by Compound 3 ([4]; antagonist 0.1 mg/kg): completely block | Inhibition of increase in hippocampal inositol phosphate caused by Compound 3 ([4]; antagonist 0.1 mg/kg): does not inhibit | Decrease in salivation caused by Compound 3 (Long Evans Hooded rats): dose-dependent decrease in salivation | Reduction of salivation caused by transdermal iontophoretic delivery of Compound 3 (rats): greatly reduced

Cc1noc(C2(F)CCCNC2)n1 (stereo not shown) [Compound 35, 5-(3-fluoropiperidin-3-yl)-3-methyl-1,2,4-oxadiazole]
huM1/A9L ED50 relative to CCh [1, 5]: − (potency < 0.5-0.1x CCh) | huM3/A9L ED50 relative to CCh [2, 5]: −− (potency < 0.1x CCh) | PAMPA units (PAMPA test): 16.3

CC(C)[N+](C)(CCOC(=O)C1c2ccccc2Oc2ccccc21)C(C)C [propantheline]
Block of increase in hippocampal inositol phosphate caused by Compound 3 ([4]; antagonist 0.03 mg/kg): without blocking | Block of increase in salivary gland inositol phosphate caused by Compound 3 ([4]; antagonist 0.03 mg/kg): can block | Reduction of salivation caused by transdermal iontophoretic delivery of Compound 3 (rats): greatly reduced

Clc1cccc(Cl)c1N=C1NCCN1 [Clonidine]
PAMPA units: 7.95

C[N+]1(C)CCC(OC(=O)C(O)(c2ccccc2)C2CCCC2)C1 (stereo not shown) [glycopyrrolate]
Block of increase in hippocampal inositol phosphate caused by Compound 3 ([4]; antagonist 0.03 mg/kg): without blocking | Block of increase in salivary gland inositol phosphate caused by Compound 3 ([4]; antagonist 0.03 mg/kg): can block | Reduction of salivation caused by transdermal iontophoretic delivery of Compound 3 (rats): greatly reduced

NC(=O)C(c1ccccc1)(c1ccccc1)[C@@H]1CCN(CCc2ccc3c(c2)CCO3)C1 [darifenacin]
Block of increase in salivary gland inositol phosphate caused by Compound 3 ([4]; antagonist 0.1 mg/kg): less effective | Reduction of salivation caused by transdermal iontophoretic delivery of Compound 3 (rats): reduced salivation, but were less effective

CCN(CC)CC#CCOC(=O)C(O)(c1ccccc1)C1CCCCC1 (stereo not shown) [oxybutinin]
Block of increase in salivary gland inositol phosphate caused by Compound 3 ([4]; antagonist 0.1 mg/kg): less effective | Reduction of salivation caused by transdermal iontophoretic delivery of Compound 3 (rats): reduced salivation, but were less effective
